The values that follow come from PMC4306942, “Asperlones A and B, Dinaphthalenone Derivatives from a Mangrove Endophytic Fungus Aspergillus sp. 16-5C” (Marine Drugs, 2015).

The target of data set [1] is T1, Mycobacterium tuberculosis protein tyrosine phosphatase B (MptpB) (Mycobacterium tuberculosis, UniProt I6WXK4).
T1 construct: The full-length PTPB gene was amplified from genomic DNA of the Mtb H37Rv strain; His6 (N); made in house; host or cells: Escherichia coli BL21(DH3) (so in the source)
T1 sequence (I6WXK4 whole entry, looked up): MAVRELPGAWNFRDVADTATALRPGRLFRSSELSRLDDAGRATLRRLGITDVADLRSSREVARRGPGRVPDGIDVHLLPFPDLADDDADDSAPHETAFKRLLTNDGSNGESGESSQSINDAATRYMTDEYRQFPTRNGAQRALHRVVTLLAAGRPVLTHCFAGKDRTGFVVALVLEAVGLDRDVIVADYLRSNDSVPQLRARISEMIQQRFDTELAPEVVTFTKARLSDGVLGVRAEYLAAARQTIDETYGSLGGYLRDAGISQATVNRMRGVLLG
Briefly: MptpB inhibition assay (RediPlate 96 EnzChek Tyrosine Phosphatase Assay kit, DiFMUP hydrolysis). The following applies: for IC50: fluorogenic substrate DiFMUP, average of three independent experiments, read-out: IC50 against MptpB; for inhibitory activity against MptpB (in words): bioassay summary in conclusions. It is filed as biochemical.

Some results are limits rather than exact numbers.

`O=C1C2=C3C(=CC(=O)c4c(O)cccc43)OC2(O)Cc2cc(O)cc(O)c21` (racemic) [Compound 1, (±)-asperlone A]: in data set [1], the IC50 amounted to 4.24 ± 0.41 µM and the “inhibitory activity against MptpB (in words)” value (from here on “inhibitory activity”) was “strong inhibitory activity”. `O=C1C2=C3C(=CC(=O)c4c(O)cc(O)cc43)OC2(O)Cc2cc(O)cc(O)c21` (racemic) [Compound 2, (±)-asperlone B]: in data set [1], the IC50 was 4.32 ± 0.6 µM and the “inhibitory activity” value is recorded as “strong inhibitory activity”.

`Cc1c(O)c(O)cc(O)c1C(=O)O[C@]1(C)C(=O)C=C2C=C(C=CC(=O)O)OC=C2C1=O` [Compound 3, 6″-hydroxy-(R)-mitorubrinic acid] showed a melting point above 300 °C. Also, the IC50 in data set [1] was above 50 µM. For the molecule `Cc1cc(O)cc(O)c1C(=O)O[C@]1(C)C(=O)C=C2C=C(/C=C/C(=O)O)OC=C2C1=O` [Compound 5, (−)-mitorubrinic acid], the IC50 in data set [1] was above 50 µM. With `C/C=C/C1=CC2=CC(=O)[C@@](C)(OC(=O)c3c(C)cc(O)cc3O)C(=O)C2=CO1` [Compound 6, (−)-mitorubrin], in data set [1], the 50% inhibitory concentration (IC50) is 3.99 ± 0.34 µM and the “inhibitory activity” value is “strong inhibitory activity”. Turning to `[Na+].[Na+].[Na+].[O]=[V]([O-])([O-])[O-]` [Positive Control, sodium orthovanadate, reference compound], the concentration for half-maximal inhibition (IC50) in data set [1] amounted to 0.05 µM.
